Columns and labels:
[1] = target: T1, 5-HT6 (h), human recombinant (CHO cells) (Homo sapiens, UniProt P50406); test: Cellular functional assay 5-HT6 (h) antagonism; type: cell-based; settings: compound 1×10^−6 M, stimulus serotonin 100 nM, read-out: 5-HT6-antag [%]
T1 construct: expressed in transfected cells; host or cells: CHO cells
Method: (§1) The results are expressed as a percent of control specific agonist response ((measured specific response/control specific agonist response)×100) obtained in the presence of tested compound.
(§2) The EC50 values (concentration producing a half-maximal specific response) and IC50 values (concentration causing a half-maximal inhibition of the control specific agonist response) were determined by non-linear regression analysis of the concentration-response curves generated with mean replicate values using Hill equation curve fitting (Y=D+[(A−D)/(1+(C/C50)nH)], where Y=specific response, D=minimum specific response, A=maximum specific response, C=compound concentration, and C50=EC50 or IC50, and nH=slope factor).
(§3) For the antagonists, the apparent dissociation constants (Kb) were calculated using the modified Cheng Prusoff equation (Kb=IC50/(1+(A/EC50A)), where A=concentration of reference agonist in the assay, and EC50A=EC50 value of the reference agonist).

[2] = target: T2, H1 histaminergic receptors, human recombinant (HEK-293 cells) (Homo sapiens, UniProt P35367); test: Binding assay, H1 histaminergic receptor ([3H]pyrilamine); settings: for H1 [%] affinity test result: compound 1×10^−6 M; for Ki: read-out: Inhibition constant Ki H1
T2 construct: expressed in transfected cells; host or cells: HEK-293 cells
T2 sequence (P35367 whole entry): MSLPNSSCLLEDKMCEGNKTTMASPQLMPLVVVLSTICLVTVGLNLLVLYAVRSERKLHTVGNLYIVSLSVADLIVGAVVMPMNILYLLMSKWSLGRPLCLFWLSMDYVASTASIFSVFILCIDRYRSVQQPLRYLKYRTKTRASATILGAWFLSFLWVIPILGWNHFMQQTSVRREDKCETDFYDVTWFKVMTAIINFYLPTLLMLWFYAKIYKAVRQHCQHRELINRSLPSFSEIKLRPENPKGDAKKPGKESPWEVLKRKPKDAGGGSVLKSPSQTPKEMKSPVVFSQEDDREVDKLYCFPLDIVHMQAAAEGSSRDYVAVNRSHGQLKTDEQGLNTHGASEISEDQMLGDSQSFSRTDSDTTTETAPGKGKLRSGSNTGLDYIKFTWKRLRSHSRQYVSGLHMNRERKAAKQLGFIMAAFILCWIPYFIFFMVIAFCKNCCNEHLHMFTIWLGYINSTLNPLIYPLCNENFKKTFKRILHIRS
Method: (§4) Moreover, ability of the compounds of the invention to block potassium channel hERG was tested.
(§5) The specific ligand binding to the receptors is defined as the difference between the total binding and the non-specific binding determined in the presence of an excess of unlabelled ligand.
(§6) The inhibition constants (Ki) were calculated using the Cheng Prusoff equation (Ki=IC50/(1+(L/KD)), where L=concentration of radioligand in the assay, and KD=affinity of the radioligand for the receptor). A Scatchard plot is used to determine the Kd. The IC50 values (concentration causing a half-maximal inhibition of control specific binding) and Hill coefficients (nH) were determined by non-linear regression analysis of the competition curves generated with mean replicate values using Hill equation curve fitting (Y=D+[(A−D)/(1+(C/C50)^nH)], where Y=specific binding, D=minimum specific binding, A=maximum specific binding, C=compound concentration, C50=IC50, and nH=slope factor). This analysis was performed using a software developed at Cerep (Hill software) and validated by comparison with data generated by the commercial software SigmaPlot® 4.0 for Windows® (©1997 by SPSS Inc.).
Experimental conditions for tests are given in Table 14, and results of tests for representative compounds are given in Table 15a and 15b.

[3] = target: T3, D2S (h), human recombinant (HEK-293 cells) (Homo sapiens, UniProt P14416); test: Cellular functional assay D2S (h) agonism; type: cell-based; settings: HEK293; compound 1×10^−6 M; control 3 μM dopamine; read-out: D2-ag [%]
T3 construct: expressed in transfected cells; host or cells: HEK-293 cells
T3 sequence (P14416 1-414 isoform P14416-2): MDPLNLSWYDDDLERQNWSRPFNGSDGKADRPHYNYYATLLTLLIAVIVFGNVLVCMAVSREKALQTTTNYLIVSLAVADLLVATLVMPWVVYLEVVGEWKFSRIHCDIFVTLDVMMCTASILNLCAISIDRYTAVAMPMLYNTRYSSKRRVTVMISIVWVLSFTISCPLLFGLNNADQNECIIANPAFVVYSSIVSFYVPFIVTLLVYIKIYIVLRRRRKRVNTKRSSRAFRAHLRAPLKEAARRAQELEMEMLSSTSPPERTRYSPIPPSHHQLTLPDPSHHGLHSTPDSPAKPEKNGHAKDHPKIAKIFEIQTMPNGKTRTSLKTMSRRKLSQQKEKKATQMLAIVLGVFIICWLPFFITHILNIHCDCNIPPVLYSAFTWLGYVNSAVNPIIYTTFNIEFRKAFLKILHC
Method: as §1, §2, §3

[4] = target: T4, D3 (h), human recombinant (CHO cells) (Homo sapiens, UniProt P35462); test: Cellular functional assay D3 (h) antagonism; type: cell-based; settings: compound 1×10^−6 M; stimulus dopamine 10 nM
T4 construct: expressed in transfected cells; host or cells: CHO cells
T4 sequence (P35462 whole entry): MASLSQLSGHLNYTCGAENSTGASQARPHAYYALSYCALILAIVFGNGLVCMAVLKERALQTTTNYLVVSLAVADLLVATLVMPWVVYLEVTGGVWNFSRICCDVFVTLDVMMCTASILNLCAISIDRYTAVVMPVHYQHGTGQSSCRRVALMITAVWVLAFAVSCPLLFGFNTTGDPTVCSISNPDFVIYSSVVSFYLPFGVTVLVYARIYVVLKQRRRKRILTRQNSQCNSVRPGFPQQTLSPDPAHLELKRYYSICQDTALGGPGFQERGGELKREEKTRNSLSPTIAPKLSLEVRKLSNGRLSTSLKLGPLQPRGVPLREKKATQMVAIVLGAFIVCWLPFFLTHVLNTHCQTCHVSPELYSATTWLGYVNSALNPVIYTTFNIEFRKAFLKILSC
Method: as §1, §2, §3

[5] = target: T1, 5-HT6 (h), human recombinant (CHO cells); test: Cellular functional assay 5-HT6 (h) agonism; type: cell-based; settings: compound 1×10^−6 M, control 10 μM serotonin, read-out: 5-HT6-ag [%]
Method: as §1, §2, §3

[6] = target: T5, 5-HT1A (h), human recombinant (CHO cells) (Homo sapiens, UniProt P08908); test: Cellular functional assay 5-HT1A (h) antagonism; type: cell-based; settings: compound 1×10^−6 M; stimulus 8-OH-DPAT 10 nM
T5 construct: expressed in transfected cells; host or cells: CHO cells
T5 sequence (P08908 1-422): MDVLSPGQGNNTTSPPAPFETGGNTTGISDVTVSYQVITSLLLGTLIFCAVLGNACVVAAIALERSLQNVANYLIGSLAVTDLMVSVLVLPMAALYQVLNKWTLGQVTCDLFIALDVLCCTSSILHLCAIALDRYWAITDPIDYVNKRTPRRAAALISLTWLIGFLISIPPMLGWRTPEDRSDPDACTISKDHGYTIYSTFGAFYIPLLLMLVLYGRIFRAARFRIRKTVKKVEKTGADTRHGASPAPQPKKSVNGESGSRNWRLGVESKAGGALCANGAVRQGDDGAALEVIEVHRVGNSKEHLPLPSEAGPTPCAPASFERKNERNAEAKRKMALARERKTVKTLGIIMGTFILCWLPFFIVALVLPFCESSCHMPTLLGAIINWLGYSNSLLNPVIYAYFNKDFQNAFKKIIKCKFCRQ
Method: as §1, §2, §3

[7] = target: T6, D4.4 receptor, human recombinant (CHO cells) (Homo sapiens, UniProt P21917); test: Binding assay, dopaminergic D4.4 receptor ([3H]methylspiperone); settings: compound 1×10^−6 M
T6 construct: expressed in transfected cells; host or cells: CHO cells
T6 sequence (P21917 1-419): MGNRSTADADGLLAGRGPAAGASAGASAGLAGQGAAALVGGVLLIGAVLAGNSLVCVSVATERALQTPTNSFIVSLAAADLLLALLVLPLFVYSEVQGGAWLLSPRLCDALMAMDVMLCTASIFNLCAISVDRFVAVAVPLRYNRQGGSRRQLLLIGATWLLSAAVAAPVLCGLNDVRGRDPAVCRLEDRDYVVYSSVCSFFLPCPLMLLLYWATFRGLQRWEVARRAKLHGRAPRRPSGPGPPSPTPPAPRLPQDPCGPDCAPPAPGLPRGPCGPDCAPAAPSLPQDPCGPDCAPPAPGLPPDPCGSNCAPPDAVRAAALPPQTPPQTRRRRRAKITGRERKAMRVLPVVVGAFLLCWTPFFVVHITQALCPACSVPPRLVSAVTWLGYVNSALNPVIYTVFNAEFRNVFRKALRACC
Method: as §4, §5, §6
Experimental conditions for tests are given in Table 1, the results of tests for so representative compounds are given in Table 2a and 2b (receptors D2 and D3) and in Table 3 (receptors D4).

[8] = target: T4, D3 (h), human recombinant (CHO cells); test: Cellular functional assay D3 (h) agonism; type: cell-based; settings: compound 1×10^−6 M; control 0.3 μM dopamine
Method: as §1, §2, §3

[9] = target: T3, D2S (h), human recombinant (HEK-293 cells); test: Cellular functional assay D2S (h) antagonism; type: cell-based; settings: HEK293; compound 1×10^−6 M; stimulus dopamine 30 nM; read-out: D2-antag [%]
Method: as §1, §2, §3

T1 sequence (P50406 whole entry): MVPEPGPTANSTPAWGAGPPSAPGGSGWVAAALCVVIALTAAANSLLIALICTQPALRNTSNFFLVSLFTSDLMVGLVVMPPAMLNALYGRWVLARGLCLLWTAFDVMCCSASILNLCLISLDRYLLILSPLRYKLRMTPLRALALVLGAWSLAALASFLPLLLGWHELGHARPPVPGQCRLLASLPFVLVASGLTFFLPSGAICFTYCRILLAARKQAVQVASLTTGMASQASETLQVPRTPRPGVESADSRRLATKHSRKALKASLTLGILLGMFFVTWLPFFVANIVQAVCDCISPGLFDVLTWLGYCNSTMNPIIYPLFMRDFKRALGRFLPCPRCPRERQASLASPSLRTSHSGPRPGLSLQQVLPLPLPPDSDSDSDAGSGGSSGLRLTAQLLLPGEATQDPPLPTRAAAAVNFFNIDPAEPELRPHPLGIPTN

Compound: O=C1CCc2ccc(OCCCN3CCN(c4cccc5c4ccn5S(=O)(=O)c4ccccc4)CC3)cc2N1 [Compound 23, 7-[3-[4-[1-(Benzensulphonyl)indol-4-yl]piperazin-1-yl]propoxy]-3,4-dihydro-1H-quinolin-2-one]
- inhibition at 1 µM [1]: 42%
- H1 [%] affinity test result [2]: 72%
- Ki [2]: 150 nM
- activation at 1 µM [3]: 40%
- D3-antag [%] [4]: −19%
- activation at 1 µM [5]: 2%
- 5-HT1A-antag [%] [6]: 20%
- D4.4 [%] binding assay result [7]: 18%
- D3-ag [%] [8]: 65%
- inhibition at 1 µM [9]: 55%

Compound: O=C1CCc2ccc(OCCCCN3CCN(c4cccc5c4ccn5S(=O)(=O)c4ccccc4)CC3)cc2N1 [Compound 24, 7-(4-(4-(1-(Phenylsulphonyl)-1H-indol-4-yl)piperazin-1-yl)butoxy)-3,4-dihydroquinolin-2(1H)-one]
- inhibition at 1 µM [1]: 88.7%
- H1 [%] affinity test result [2]: 78%
- Ki [2]: 100 nM
- activation at 1 µM [3]: 47%
- D3-antag [%] [4]: 63.2%
- activation at 1 µM [5]: 0%
- 5-HT1A-antag [%] [6]: 0%
- D4.4 [%] binding assay result [7]: 42%
- D3-ag [%] [8]: 13%
- inhibition at 1 µM [9]: 93%

Compound: O=C1CCc2ccc(OCCCCN3CCN(c4cccc5c4ccn5Cc4cccc(F)c4)CC3)cc2N1 [Compound 63, 7-[4-[4-[1-[(3-Fluorophenyl)methyl]indol-4-yl]piperazin-1-yl]butoxy]-3,4-dihydro-1H-quinolin-2-one]
- inhibition at 1 µM [1]: 61%
- H1 [%] affinity test result [2]: 81%
- activation at 1 µM [3]: 47%
- D3-antag [%] [4]: 72%
- activation at 1 µM [5]: -1%
- 5-HT1A-antag [%] [6]: 73%
- D4.4 [%] binding assay result [7]: 46%
- D3-ag [%] [8]: 20%
- inhibition at 1 µM [9]: 108%

Compound: O=C1CCc2ccc(OCCCN3CCN(c4cccc5c4ccn5Cc4ccccc4)CC3)cc2N1 [Compound 4, 7-[3-[4-(1-Benzylindol-4-yl)piperazin-1-yl]propoxy]-3,4-dihydro-1H-quinolin-2-one]
- inhibition at 1 µM [1]: 73%
- H1 [%] affinity test result [2]: 73%
- activation at 1 µM [3]: 45%
- D3-antag [%] [4]: 29%
- activation at 1 µM [5]: 0%
- 5-HT1A-antag [%] [6]: 17%
- D4.4 [%] binding assay result [7]: 63%
- D3-ag [%] [8]: 22%
- inhibition at 1 µM [9]: 89%

Compound: O=C1CCc2ccc(OCCCCN3CCN(c4cccc5c4ccn5Cc4ccccc4)CC3)cc2N1 [Compound 5, 7-(4-(4-(1-Benzyl-1H-indol-4-yl)piperazin-1-yl)butoxy)-3,4-dihydroquinolin-2(1H)-one]
- inhibition at 1 µM [1]: 42%
- H1 [%] affinity test result [2]: 88%
- activation at 1 µM [3]: 47%
- D3-antag [%] [4]: 43%
- activation at 1 µM [5]: -1%
- 5-HT1A-antag [%] [6]: 31%
- D4.4 [%] binding assay result [7]: 40%
- D3-ag [%] [8]: 22%
- inhibition at 1 µM [9]: 99%

Compound: O=C1CCc2ccc(OCCCCN3CCN(c4cccc5c4ccn5Cc4cccc(Cl)c4)CC3)cc2N1 [Compound 67, 7-[4-[4-[1-[(3-Chlorophenyl)methyl]indol-4-yl]piperazin-1-yl]butoxy]-3,4-dihydro-1H-quinolin-2-one]
- inhibition at 1 µM [1]: 53%
- activation at 1 µM [3]: 46%
- D3-antag [%] [4]: 74%
- activation at 1 µM [5]: 0%
- 5-HT1A-antag [%] [6]: 56%
- D4.4 [%] binding assay result [7]: 44%
- D3-ag [%] [8]: 11%
- inhibition at 1 µM [9]: 103%

Compound: NC(=O)c1ccccc1OCCCN1CCN(c2cccc3c2ccn3S(=O)(=O)c2ccccc2)CC1 [Compound 72, 2-[3-[4-[1-(Benzenesulfonyl)indol-4-yl]piperazin-1-yl]propoxy]-benzamide]
- inhibition at 1 µM [1]: 103%
- H1 [%] affinity test result [2]: 80%
- activation at 1 µM [3]: 34%
- D3-antag [%] [4]: 74%
- activation at 1 µM [5]: -2%
- 5-HT1A-antag [%] [6]: 61%
- D4.4 [%] binding assay result [7]: 95%
- D3-ag [%] [8]: 34%
- inhibition at 1 µM [9]: 95%
